The source of these data is US10207006B2, “Oligosaccharide conjugates and methods of use” (priority 2013, dated 2019).

Structures are written as SMILES.

Assay [1] deals with anti-A and anti-M rabbit hyperimmunised and absorbed monospecific sera. The assay is classed as binding.
Assay [2] has as its system anti-M monoclonal antibody BM40. It is filed as binding.

For the compound `C[C@H]1O[C@H](O[C@@H]2[C@@H](O[C@@H]3[C@H](O)[C@@H](O[C@H]4[C@@H](O)[C@H](NC=O)[C@@H](C)O[C@@H]4O)O[C@H](C)[C@H]3NC=O)O[C@H](C)[C@@H](NC=O)[C@@H]2O)[C@@H](O)[C@@H](O)[C@@H]1NC=O` [TSM antigen, 4,6-dideoxy-4-formamido-α-D-mannopyranosyl-(1-2)-4,6-dideoxy-4-formamido-α-D-mannopyranosyl-(1-3)-4,6-dideoxy-4-formamido-α-D-mannopyranosyl-(1-2)-4,6-dideoxy-4-formamido-α-D-mannopyranose], in assay [1], the “inhibition of anti-M vs anti-A monospecific sera binding” value is listed as “preferential inhibition of the anti-M sera”. Also, the “inhibition of BM40 mAb binding by competing liquid phase antigen” value in assay [2] is “inhibit the binding to a greater extent than the equivalent concentration of Y. enterocolitica O:9 OPS and to a similar degree as the B. abortus S99 OPS”.
For the compound `CO[C@H]1OC(C)[C@@H](NC=O)C(O)C1O[C@H]1OC(C)[C@@H](NC=O)C(O[C@H]2OC(C)[C@@H](NC=O)C(O)C2O[C@H](C=O)OC(C)[C@H](C=O)NC=O)C1O` (stereo partly drawn) [oxiTSM], the “inhibition of BM40 mAb binding by competing liquid phase antigen” value in assay [2] was “maintained its antibody interaction”.
